For one series, the system named is Clostridium difficile. The series is described as follows: Broth microdilution MIC against Clostridium difficile strains. The series is classed as cell-based. Conditions: Clostridioides difficile. How it is done:
The broth microdilution assay was utilized following the Clinical and Laboratory Standards Institute (CLSI) guidelines with slight modifications. Briefly, C. difficile strains were grown on anaerobic blood agar plates (Becton Dickinson, BD) and suspended in brain heart infusion supplemented broth (Brain heart infusion medium, BD, supplemented with yeast extract, L-cysteine, Vitamin K1 and Hemin, Sigma) to achieve a bacterial concentration of ~10^5 CFU/ml. The bacterial suspension was seeded in 96-well plates containing drugs/compounds, in duplicate, at the required concentration. Plates were then incubated at 37 °C anaerobically for 48 hours. MICs reported are the lowest concentration of each agent that inhibited the visual growth of bacteria.

Series [1] can be described thus: Caco-2 bidirectional permeability assay. The class given is in vitro ADME, human. Conditions: human, Caco-2; for efflux ratio at 2 h: Re = (Papp B→A)/(Papp A→B); for Papp A→B at 2 h: apical (pH 6.5) to basolateral (pH 7.4); for Papp A→B at 2 h / Papp B→A at 2 h: two hours; for Papp B→A at 2 h: basolateral to apical. How it is done:
The Caco-2 bidirectional permeability assay was conducted as described in previous reports[29],[30],[41],[42]. The Caco-2 cell line is similar to human enterocytes and expresses P-glycoprotein and other relevant metabolic enzymes that affect absorption of orally-administered xenobiotics across the intestinal mucosa[34],[43],[44]. Caco-2 cells were grown in tissue culture flasks, trypsinized (by rinsing cells with phosphate-buffered saline and then treating with trypsin-EDTA for 5–10 minutes at 37 °C with 5% CO2 until cells detached), suspended in Dulbecco’s Modified Eagle Medium with 10% fetal bovine serum, 1% nonessential amino acids and penicillin-streptomycin, and then seeded onto wells of a Millipore 96-well Caco-2 plate. Cells were cultured at 37 °C with 5% CO2 until confluent (approximately three weeks) and media was changed at relevant time points. For Apical to Basolateral (A → B) permeability, the test article was added to the apical (A) compartment and the amount of permeation (Papp, as calculated below) to the basolateral (B) compartment was determined; for Basolateral to Apical (B → A) permeability, the test article was added to the B compartment and the amount of permeation to the A compartment was determined. […] Caco-2 cells were incubated with these buffers for two hours, and the receiver side buffer was removed for analysis by LC/MS/MS. To verify the tight junctions and integrity of Caco-2 cell monolayers, aliquots of the cell buffers were analyzed by fluorescence (Lucifer yellow transport ≤ 2%). Any deviations from control values are reported. Data are expressed as permeability (Papp) = (dQ/dt)/(C0A) where dQ/dt is the rate of permeation, C0 is the initial concentration of test agent, and A is the area of the monolayer.

From PMC7101335, “Aryl-alkyl-lysines: Novel agents for treatment of C. difficile infection” (Scientific Reports, 2020) come the findings set out here.

Structures are written as SMILES. Converted amounts (≈) assume the structure as drawn. Like-named read-outs stand apart in the source and are kept apart here.

For the compound `Cc1ncc([N+](=O)[O-])n1CCO` [Metronidazole, reference compound], the MIC came to 0.25 µg/mL (≈ 1.46 µM) in the series with Clostridium difficile (C. difficile Isolate 1 (NR-13427), read-out: Minimum inhibitory concentration); 0.0625 µg/mL (≈ 0.365 µM) in the series on Clostridium difficile (C. difficile Isolate 2 (NR-13428), read-out: Minimum inhibitory concentration); 0.5 µg/mL (≈ 2.92 µM) in the series with Clostridium difficile (C. difficile Isolate 4 (NR-13430), read-out: Minimum inhibitory concentration); 0.25 µg/mL (≈ 1.46 µM) in the series with Clostridium difficile (C. difficile Isolate 5 (NR-13431), read-out: Minimum inhibitory concentration); 0.125 µg/mL (≈ 0.73 µM) with Clostridium difficile (C. difficile Isolate 6 (NR-13432), read-out: Minimum inhibitory concentration); 0.0625 µg/mL (≈ 0.365 µM) in the series with Clostridium difficile (C. difficile Isolate 9 (NR-13435), read-out: Minimum inhibitory concentration). The MIC in the series on Clostridium difficile (C. difficile Isolate 10 (NR-13436), read-out: Minimum inhibitory concentration) was 0.125 µg/mL (≈ 0.73 µM); with Clostridium difficile (C. difficile P2 (NR-32883), read-out: Minimum inhibitory concentration) it was 0.0625 µg/mL (≈ 0.365 µM); with Clostridium difficile (C. difficile P4 (NR-32889), read-out: Minimum inhibitory concentration), 0.125 µg/mL (≈ 0.73 µM); in the series on Clostridium difficile (C. difficile P8 (NR-32888), read-out: Minimum inhibitory concentration) it was 0.125 µg/mL (≈ 0.73 µM); in the series on Clostridium difficile (C. difficile P13 (NR-32891), read-out: Minimum inhibitory concentration), 0.25 µg/mL (≈ 1.46 µM); in the series on Clostridium difficile (C. difficile P15 (NR-32892), read-out: Minimum inhibitory concentration), 0.0625 µg/mL (≈ 0.365 µM). Besides, the MIC in the series on Clostridium difficile (C. difficile P20 (NR-32896), read-out: Minimum inhibitory concentration) is 0.25 µg/mL (≈ 1.46 µM); in the series with Clostridium difficile (C. difficile P21 (NR-32897), read-out: Minimum inhibitory concentration), 0.125 µg/mL (≈ 0.73 µM); in the series with Clostridium difficile (C. difficile P29 (NR-32903), read-out: Minimum inhibitory concentration), 0.0625 µg/mL (≈ 0.365 µM); in the series on Clostridium difficile (C. difficile strains P8, P13 and Isolate 10), less than 0.25 µg/mL.
With `CNC(=C[N+](=O)[O-])NCCSCc1ccc(CN(C)C)o1` [Ranitidine], in series [1], the efflux ratio at 2 h worked out at 5.18, the apparent permeability from apical to basolateral (Papp A→B) at 2 h stood at 0.186 ×10⁻⁶ cm/s and the Papp B→A at 2 h amounted to 0.942 ×10⁻⁶ cm/s.
The like results for `CC(=O)CC(c1ccccc1)c1c(O)c2ccccc2oc1=O` (stereo not shown) [Warfarin] were, in that order, 1.54, 12.7 ×10⁻⁶ cm/s and 19.6 ×10⁻⁶ cm/s.
